Experimental data as given in the NIST ThermoML archive (doi:10.1016/j.jct.2015.10.026).

Experiment: mn = molality of the nth substance listed, in mol/kg
Conditions: 100 kPa, Liquid; for viscosity: Capillary tube (Ostwald / Ubbelohde) method; for electrical conductivity: Direct current cell with electrodes; for mass density: Vibrating tube method

CCCCn1cc[n+](C)c1.NCCS(=O)(=O)[O-] [1-butyl-3-methylimidazolium taurate] + O
Conditions	electrical conductivity [S/m]	mass density [kg/m3]	viscosity [mPa·s]
293.15 K, m1 = 0.00165	0.0072	–	–
293.15 K, m1 = 0.00227	0.0097	–	–
293.15 K, m1 = 0.00341	0.0142	–	–
293.15 K, m1 = 0.00511	0.0205	998.36	–
293.15 K, m1 = 0.00752	0.0293	998.46	–
293.15 K, m1 = 0.00917	–	998.52	–
293.15 K, m1 = 0.01078	0.0403	998.59	1.034
293.15 K, m1 = 0.01261	0.0464	998.67	1.038
293.15 K, m1 = 0.01552	0.0552	998.81	1.043
293.15 K, m1 = 0.01938	0.0668	999	1.05
293.15 K, m1 = 0.02239	0.0757	999.16	–
293.15 K, m1 = 0.02555	–	999.33	1.06
293.15 K, m1 = 0.02746	–	999.43	–
293.15 K, m1 = 0.03626	–	–	1.074
293.15 K, m1 = 0.05001	–	–	1.093
293.15 K, m1 = 0.0693	–	–	1.117
293.15 K, m1 = 0.08462	–	–	1.133
298.15 K, m1 = 0.00165	0.0089	–	–
298.15 K, m1 = 0.00227	0.0121	–	–
298.15 K, m1 = 0.00341	0.0177	–	–
298.15 K, m1 = 0.00511	0.0257	997.16	–
298.15 K, m1 = 0.00752	0.0365	997.24	–
298.15 K, m1 = 0.00917	–	997.3	–
298.15 K, m1 = 0.01078	0.0498	997.36	0.925
298.15 K, m1 = 0.01261	0.0571	997.43	0.928
298.15 K, m1 = 0.01552	0.0684	997.56	0.934
298.15 K, m1 = 0.01938	0.0824	997.74	0.94
298.15 K, m1 = 0.02239	0.0922	997.89	–
298.15 K, m1 = 0.02555	–	998.06	0.95
298.15 K, m1 = 0.02746	–	998.16	–
298.15 K, m1 = 0.03626	–	–	0.965
298.15 K, m1 = 0.05001	–	–	0.981
298.15 K, m1 = 0.0693	–	–	1.004
298.15 K, m1 = 0.08462	–	–	1.018
303.15 K, m1 = 0.00165	0.0104	–	–
303.15 K, m1 = 0.00227	0.0141	–	–
303.15 K, m1 = 0.00341	0.0206	–	–
303.15 K, m1 = 0.00511	0.0299	995.73	–
303.15 K, m1 = 0.00752	0.0425	995.79	–
303.15 K, m1 = 0.00917	–	995.83	–
303.15 K, m1 = 0.01078	0.0587	995.88	0.835
303.15 K, m1 = 0.01261	0.0675	995.94	0.838
303.15 K, m1 = 0.01552	0.0805	996.06	0.844
303.15 K, m1 = 0.01938	0.0965	996.22	0.85
303.15 K, m1 = 0.02239	0.107	996.37	–
303.15 K, m1 = 0.02555	–	996.53	0.86
303.15 K, m1 = 0.02746	–	996.63	–
303.15 K, m1 = 0.03626	–	–	0.874
303.15 K, m1 = 0.05001	–	–	0.89
303.15 K, m1 = 0.0693	–	–	0.911
303.15 K, m1 = 0.08462	–	–	0.925
308.15 K, m1 = 0.00165	0.0119	–	–
308.15 K, m1 = 0.00227	0.0161	–	–
308.15 K, m1 = 0.00341	0.0237	–	–
308.15 K, m1 = 0.00511	0.0344	994.08	–
308.15 K, m1 = 0.00752	0.0488	994.12	–
308.15 K, m1 = 0.00917	–	994.15	–
308.15 K, m1 = 0.01078	0.067	994.19	0.76
308.15 K, m1 = 0.01261	0.0772	994.24	0.764
308.15 K, m1 = 0.01552	0.092	994.34	0.77
308.15 K, m1 = 0.01938	0.111	994.48	0.776
308.15 K, m1 = 0.02239	0.123	994.63	–
308.15 K, m1 = 0.02555	–	994.78	0.786
308.15 K, m1 = 0.02746	–	994.88	–
308.15 K, m1 = 0.03626	–	–	0.801
308.15 K, m1 = 0.05001	–	–	0.817
308.15 K, m1 = 0.0693	–	–	0.837
308.15 K, m1 = 0.08462	–	–	0.851
313.15 K, m1 = 0.00165	0.0135	–	–
313.15 K, m1 = 0.00227	0.0182	–	–
313.15 K, m1 = 0.00341	0.0265	–	–
313.15 K, m1 = 0.00511	0.0385	992.21	–
313.15 K, m1 = 0.00752	0.0544	992.23	–
313.15 K, m1 = 0.00917	–	992.26	–
313.15 K, m1 = 0.01078	0.0749	992.29	0.698
313.15 K, m1 = 0.01261	0.0858	992.34	0.702
313.15 K, m1 = 0.01552	0.102	992.42	0.708
313.15 K, m1 = 0.01938	0.121	992.55	0.715
313.15 K, m1 = 0.02239	0.134	992.67	–
313.15 K, m1 = 0.02555	–	992.8	0.725
313.15 K, m1 = 0.02746	–	992.88	–
313.15 K, m1 = 0.03626	–	–	0.74
313.15 K, m1 = 0.05001	–	–	0.757
313.15 K, m1 = 0.0693	–	–	0.779
313.15 K, m1 = 0.08462	–	–	0.793
